{
  "source": "paper PMC5515969",
  "about": "“Effects of 31 FDA approved small-molecule kinase inhibitors on isolated rat liver mitochondria” (Archives of Toxicology, 2016)",
  "key": {"[1]": {"tested_on": "isolated rat liver mitochondria", "test": "Mitochondrial oxygen consumption (glutamate/malate or succinate driven, state 4 and state 3)", "assay_type": "biochemical", "conditions": "onefold Cmax", "outline": "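Rat liver mitochondria (1 mg/ml protein) exposed 5 min to kinase inhibitors in 0.1% DMSO, then O2 consumption measured by Clark-type electrode with glutamate/malate or succinate (state 4), ADP added after 3 min (state 3). Rates normalized to 0.1% DMSO controls set to 1.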"}, "RCC I": {"tested_on": "RCC I", "test": "RCC I activity in submitochondrial particles", "assay_type": "biochemical, rat", "conditions": "1-fold Cmax; 15 min; DMSO-treated = 100", "outline": "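Inhibitors preincubated 15 min with submitochondrial particles (1 mg/ml) before activity readout. RCC I (rotenone-sensitive fraction) and I/V: A340, and RCC II: A600, each every 1 min for 6 min; RCC III/IV: A550 every 10 s for 2 min. Activities relative to DMSO control set as 1.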"}, "RCC III": {"tested_on": "RCC III", "test": "RCC III activity in submitochondrial particles", "assay_type": "biochemical, rat", "conditions": "1-fold Cmax; 15 min; DMSO-treated = 100", "experimental": "(§1) KIs were incubated with submitochondrial particles (1 mg/ml) for 15 min and then RCC I–V activities measured. […] The activities of DMSO-treated samples (controls) were set as 1. […] The difference between the activity from rotenone-containing buffer and rotenone-absent buffer was considered as RCC I activity. […] For measuring RCC I/V and II activity, the changes in absorbance at 340 and 600 nm, respectively, were determined every 1 min for 6 min. For measuring RCC III and RCC IV, the changes in absorbance at 550 nm were measured every 10 s for 2 min."}, "RCC IV": {"tested_on": "RCC IV", "test": "RCC IV activity in submitochondrial particles", "assay_type": "biochemical, rat", "conditions": "1-fold Cmax; 15 min; DMSO-treated = 100", "experimental": "as §1"}, "RCC I–V": {"tested_on": "RCC I–V", "test": "Activities of RCC I–V, overall statements", "assay_type": "biochemical, rat", "conditions": "submitochondrial particles", "experimental": "as §1"}, "[2]": {"conditions": "human therapeutic Cmax at FDA recommended dosages, ref product labeling and drug approval packages at the official FDA website, cited from earlier work"}},
  "note": "Read-outs that look alike come from different tables or passages of the source.",
  "data": [
    {"smiles": "Cc1ccc(Nc2nccc(N(C)c3ccc4c(C)n(C)nc4c3)n2)cc1S(N)(=O)=O", "note": "[Pazopanib]", "values": [
      {"measurement": "inhibition of state 3 mitochondrial respiration driven by glutamate/malate", "setting": "[1]", "value": "over 50%"},
      {"measurement": "RCC activity I", "setting": "RCC I", "value": "83.77 ± 2.98 % of control"},
      {"measurement": "RCC activity III", "setting": "RCC III", "value": "96.90 ± 11.69 % of control"},
      {"measurement": "RCC activity IV", "setting": "RCC IV", "value": "102.68 ± 0.57 % of control"},
      {"measurement": "lowest concentration inhibiting RCCs", "setting": "RCC I–V", "value": "equal to Cmax"},
      {"measurement": "RCCs inhibited", "setting": "RCC I–V; up to 100-fold Cmax or highest testable concentration", "value": "inhibitor of RCC I but not other RCCs"},
      {"measurement": "Cmax", "setting": "[2]", "value": 133, "unit": "µM"},
      {"measurement": "Cmax", "setting": "[2]; listed as pazopanib", "value": 133, "unit": "µM"}
    ]}
  ]
}
